Source: patent publication US9029410B2, “Pharmaceutical compositions for the treatment of movement disorders” (Sarah Herzog Memorial Hospital Ezrath Nashim Association, priority 2003, dated 2015)

Assays:
monkeys = details: NR2A antagonist; cited from earlier work
patients = details: Tsai and Coyle '875; low baseline levels; cited from earlier work
Sprague-Dewley rats = assay: Effects of chronic haloperidol treatment on motor activity; assay type: in vivo, rat
Description: Rats were weighed biweekly throughout the study. Room temperature was maintained at 22±2° C.

[1] = test system: neuroleptic sensitized monkeys; details: cited from earlier work

Compound: N[C@H](CC(=O)CP(=O)(O)O)C(=O)O [MDL 100,453]
- Effect on symptoms of dyskinesia (monkeys): worsening symptoms of dyskinesia

Compound: CNCC(=O)O [N-methylglycine]
- Changes in SAS or AIMS scores (patients): no significant changes

Compound: CCCCCCCCCC(=O)OC1(c2ccc(Cl)cc2)CCN(CCCC(=O)c2ccc(F)cc2)CC1 [haloperidol, haloperidol decanoate]
- Number of VCM episodes relative to rats that had received placebo (Sprague-Dewley rats; haloperidol decanoate i.m. every four weeks, 24 weeks, p<0.001): approximately 4 fold
- Mean time spent in immobility (Sprague-Dewley rats; haloperidol for 24 weeks, 5 minute observation interval, placebo 53.0±12.7): 103.2 ± 7.8 s
- Number of rearing episodes vs placebo (Sprague-Dewley rats; haloperidol for 24 weeks, p<0.0001): significantly lower
- Number of grooming episodes vs controls (Sprague-Dewley rats; haloperidol for 24 weeks, p<0.17): did not differ

Compound: CNC1(c2ccccc2Cl)CCCCC1=O (stereo not shown) [ketamine]
- Motor effects of administration [1]: induces bradykinesia, dystonia and salivation
